Data as given in patent publication US9707229B2, “Compositions and methods for treating an infection” (CMPD LICENSING, LLC, priority 2015, dated 2017).

Assays:
Assay type in all cases: cell-based
Providencia rettgeri = test: Expected efficacy of antibiotic agents; settings: Gram: neg
Corynebacterium jeikeium = test: Expected efficacy of antibiotic agents; settings: Gram: pos
[1] = tested on: Methicillin resistant staph aureus (MRSA); test: Expected efficacy of antibiotic agents; settings: Gram: pos
Neisseria gonorrhoeae = test: Expected efficacy of antibiotic agents; settings: Gram: neg
Legionella pneumophila = settings: expected efficacy; Gram: neg
[2] = tested on: Viridans group streptococci; test: Expected efficacy of antibiotic agents; settings: Gram: pos
Brucella species = settings: expected efficacy; Gram: neg
Providencia stuartii = test: Expected efficacy of antibiotic agents; settings: Gram: neg
[3] = tested on: Staphylococcus epidermidis; test: Expected efficacy of antibiotic agents; settings: Gram: pos
Chlamydia trachomatis = test: Expected efficacy of antibiotic agents; settings: Gram: n/a
Bacteroides fragilis = test: Expected efficacy of antibiotic agents; settings: Gram: anaer
Proteus vulgaris = test: Expected efficacy of antibiotic agents; settings: Gram: neg
Enterococcus faecium = test: Expected efficacy of antibiotic agents; settings: Gram: pos
Clostridium difficile = test: Expected efficacy of antibiotic agents; settings: Gram: anaer
[4] = tested on: Staphylococcus aureus (MSSA); test: Expected efficacy of antibiotic agents; settings: Gram: pos
Diphtheroids = test: Expected efficacy of antibiotic agents; settings: Gram: pos
[5] = tested on: Klebsiella (Calymmatobacterium) granulomatis; test: Expected efficacy of antibiotic agents; settings: Gram: neg
Chlamydia pneumoniae = test: Expected efficacy of antibiotic agents; settings: Gram: n/a
Pseudomonas fluorescens = test: Expected efficacy of antibiotic agents; settings: Gram: neg
Serratia marcescens = test: Expected efficacy of antibiotic agents; settings: Gram: neg
[6] = tested on: Haemophilus parainfluenzae; test: Expected efficacy of antibiotic agents; settings: Gram: neg
Bordetella pertussis = test: Expected efficacy of antibiotic agents; settings: Gram: neg
Streptococcus pneumoniae = test: Expected efficacy of antibiotic agents; settings: Gram: pos
Neisseria meningitidis = test: Expected efficacy of antibiotic agents; settings: Gram: neg
Vibrio cholerae = test: Expected efficacy of antibiotic agents; settings: Gram: neg
Pseudomonas aeruginosa = test: Expected efficacy of antibiotic agents; settings: Gram: neg
Streptococcus agalactiae = test: Expected efficacy of antibiotic agents; settings: Gram: pos
Moraxella catarrhalis = test: Expected efficacy of antibiotic agents; settings: Gram: neg
Proteus mirabilis = test: Expected efficacy of antibiotic agents; settings: Gram: neg
[7] = tested on: Corynebacterium urealyticum; test: Expected efficacy of antibiotic agents; settings: Gram: pos
Chlamydia psittaci = settings: expected efficacy; Gram: n/a
Escherichia coli = test: Expected efficacy of antibiotic agents; settings: Gram: neg
Peptostreptococcus = test: Expected efficacy of antibiotic agents; settings: Gram: pos
Mycoplasma pneumoniae = test: Expected efficacy of antibiotic agents; settings: Gram: n/a
Enterobacter sakazakii = test: Expected efficacy of antibiotic agents; settings: Gram: neg
Enterobacter aerogenes = test: Expected efficacy of antibiotic agents; settings: Gram: neg
Streptococcus pyogenes = test: Expected efficacy of antibiotic agents; settings: Gram: pos
Klebsiella pneumoniae = test: Expected efficacy of antibiotic agents; settings: Gram: neg
Klebsiella oxytoca = test: Expected efficacy of antibiotic agents; settings: Gram: neg
Enterobacter cloacae = test: Expected efficacy of antibiotic agents; settings: Gram: neg
Enterococcus faecalis = test: Expected efficacy of antibiotic agents; settings: Gram: pos
Campylobacter jejuni = test: Expected efficacy of antibiotic agents; settings: Gram: neg
Acinetobacter baumannii = test: Expected efficacy of antibiotic agents; settings: Gram: neg
Yersinia pestis = settings: expected efficacy; Gram: neg
Shigella boydii = test: Expected efficacy of antibiotic agents; settings: Gram: neg
Shigella dysenteriae = test: Expected efficacy of antibiotic agents; settings: Gram: neg
Rickettsiae = settings: expected efficacy; Gram: neg
Shigella flexneri = test: Expected efficacy of antibiotic agents; settings: Gram: neg
Salmonella typhi = test: Expected efficacy of antibiotic agents; settings: Gram: neg
Clostridium perfringens = settings: expected efficacy; Gram: anaer
Haemophilus influenzae = test: Expected efficacy of antibiotic agents; settings: Gram: neg
Francisella tularensis = settings: expected efficacy; Gram: neg
Morganella morganii = test: Expected efficacy of antibiotic agents; settings: Gram: neg
Acinetobacter lwoffii = test: Expected efficacy of antibiotic agents; settings: Gram: neg
Haemophilus ducreyi = test: Expected efficacy of antibiotic agents; settings: Gram: neg
Shigella sonnei = test: Expected efficacy of antibiotic agents; settings: Gram: neg
Citrobacter diversus = test: Expected efficacy of antibiotic agents; settings: Gram: neg
Citrobacter freundii = test: Expected efficacy of antibiotic agents; settings: Gram: neg
[8] = tested on: Acinetobacter calcoaceticus; test: Expected efficacy of antibiotic agents; settings: Gram: neg

In the case of Colistimethate, the “efficacy against Providencia rettgeri” value (Providencia rettgeri) is reported as “no”, the “efficacy against Corynebacterium jeikeium” value (Corynebacterium jeikeium) is reported as “no” and the “efficacy against Methicillin resistant staph aureus (MRSA)” value [1] is reported as “no”. For the same compound, the “efficacy against Neisseria gonorrhoeae” value (Neisseria gonorrhoeae) was “no”, the “efficacy against Legionella pneumophila” value (Legionella pneumophila) was “no” and the “efficacy against Viridans group streptococci” value [2] was “no”. For the same compound, the “efficacy against Brucella species” value (Brucella species) was “no”, the “efficacy against Providencia stuartii” value (Providencia stuartii) was “no” and the “efficacy against Staphylococcus epidermidis” value [3] was “no”. For the same compound, the “efficacy against Chlamydia trachomatis” value (Chlamydia trachomatis) was “no”, the “efficacy against Bacteroides fragilis” value (Bacteroides fragilis) was “no” and the “efficacy against Proteus vulgaris” value (Proteus vulgaris) was “no”. For the same compound, the “efficacy against Enterococcus faecium” value (Enterococcus faecium) was “no”, the “efficacy against Clostridium difficile” value (Clostridium difficile) was “no” and the “efficacy against Staphylococcus aureus (MSSA)” value [4] was “no”. For the same compound, the “efficacy against Diphtheroids” value (Diphtheroids) was “no”, the “efficacy against Klebsiella (Calymmatobacterium) granulomatis” value [5] was “yes” and the “efficacy against Chlamydia pneumoniae” value (Chlamydia pneumoniae) was “no”. The “efficacy against Pseudomonas fluorescens” value (Pseudomonas fluorescens) was “yes”, the “efficacy against Serratia marcescens” value (Serratia marcescens) was “no” and the “efficacy against Haemophilus parainfluenzae” value [6] was “no”. The “efficacy against Bordetella pertussis” value (Bordetella pertussis) was “no”, the “efficacy against Streptococcus pneumoniae” value (Streptococcus pneumoniae) was “no” and the “efficacy against Neisseria meningitidis” value (Neisseria meningitidis) was “no”. The “efficacy against Vibrio cholerae” value (Vibrio cholerae) was “no”, the “efficacy against Pseudomonas aeruginosa” value (Pseudomonas aeruginosa) was “yes” and the “efficacy against Streptococcus agalactiae” value (Streptococcus agalactiae) was “no”. The “efficacy against Moraxella catarrhalis” value (Moraxella catarrhalis) was “no”, the “efficacy against Proteus mirabilis” value (Proteus mirabilis) was “no” and the “efficacy against Corynebacterium urealyticum” value [7] was “no”. For the same compound, the “efficacy against Chlamydia psittaci” value (Chlamydia psittaci) was “no”, the “efficacy against Escherichia coli” value (Escherichia coli) was “yes” and the “efficacy against Peptostreptococcus” value (Peptostreptococcus) was “no”. The “efficacy against Mycoplasma pneumoniae” value (Mycoplasma pneumoniae) was “no”, the “efficacy against Enterobacter sakazakii” value (Enterobacter sakazakii) was “yes” and the “efficacy against Enterobacter aerogenes” value (Enterobacter aerogenes) was “yes”. The “efficacy against Streptococcus pyogenes” value (Streptococcus pyogenes) was “no”, the “efficacy against Klebsiella pneumoniae” value (Klebsiella pneumoniae) was “yes” and the “efficacy against Klebsiella oxytoca” value (Klebsiella oxytoca) was “yes”. The “efficacy against Enterobacter cloacae” value (Enterobacter cloacae) was “yes” and the “efficacy against Enterococcus faecalis” value (Enterococcus faecalis) was “no”.

With `CO/N=C(\C(=O)N[C@@H]1C(=O)N2C(C(=O)O)=C(CSc3nc(=O)c(=O)[nH]n3C)CS[C@H]12)c1csc(N)n1` [Ceftriaxone] the “efficacy against Providencia rettgeri” value (Providencia rettgeri) was “yes”, the “efficacy against Corynebacterium jeikeium” value (Corynebacterium jeikeium) was “no” and the “efficacy against Methicillin resistant staph aureus (MRSA)” value [1] was “no”. The “efficacy against Neisseria gonorrhoeae” value (Neisseria gonorrhoeae) was “yes”, the “efficacy against Campylobacter jejuni” value (Campylobacter jejuni) was “no” and the “efficacy against Acinetobacter baumannii” value (Acinetobacter baumannii) was “no”. The “efficacy against Legionella pneumophila” value (Legionella pneumophila) was “no”, the “efficacy against Viridans group streptococci” value [2] was “yes” and the “efficacy against Providencia stuartii” value (Providencia stuartii) was “yes”. For the same compound, the “efficacy against Staphylococcus epidermidis” value [3] was “yes”, the “efficacy against Chlamydia trachomatis” value (Chlamydia trachomatis) was “no” and the “efficacy against Yersinia pestis” value (Yersinia pestis) was “no”. The “efficacy against Bacteroides fragilis” value (Bacteroides fragilis) was “yes”, the “efficacy against Proteus vulgaris” value (Proteus vulgaris) was “yes” and the “efficacy against Shigella boydii” value (Shigella boydii) was “yes”. The “efficacy against Enterococcus faecium” value (Enterococcus faecium) was “no”, the “efficacy against Clostridium difficile” value (Clostridium difficile) was “no” and the “efficacy against Staphylococcus aureus (MSSA)” value [4] was “yes”. The “efficacy against Diphtheroids” value (Diphtheroids) was “no”, the “efficacy against Klebsiella (Calymmatobacterium) granulomatis” value [5] was “yes” and the “efficacy against Chlamydia pneumoniae” value (Chlamydia pneumoniae) was “no”. The “efficacy against Shigella dysenteriae” value (Shigella dysenteriae) was “yes”, the “efficacy against Serratia marcescens” value (Serratia marcescens) was “yes” and the “efficacy against Rickettsiae” value (Rickettsiae) was “no”. For the same compound, the “efficacy against Shigella flexneri” value (Shigella flexneri) was “yes”, the “efficacy against Haemophilus parainfluenzae” value [6] was “yes” and the “efficacy against Bordetella pertussis” value (Bordetella pertussis) was “no”. The “efficacy against Salmonella typhi” value (Salmonella typhi) was “yes”, the “efficacy against Streptococcus pneumoniae” value (Streptococcus pneumoniae) was “yes” and the “efficacy against Clostridium perfringens” value (Clostridium perfringens) was “yes”. For the same compound, the “efficacy against Haemophilus influenzae” value (Haemophilus influenzae) was “yes”, the “efficacy against Neisseria meningitidis” value (Neisseria meningitidis) was “yes” and the “efficacy against Francisella tularensis” value (Francisella tularensis) was “no”. For the same compound, the “efficacy against Morganella morganii” value (Morganella morganii) was “yes”, the “efficacy against Vibrio cholerae” value (Vibrio cholerae) was “no” and the “efficacy against Pseudomonas aeruginosa” value (Pseudomonas aeruginosa) was “no”. For the same compound, the “efficacy against Acinetobacter lwoffii” value (Acinetobacter lwoffii) was “no”, the “efficacy against Haemophilus ducreyi” value (Haemophilus ducreyi) was “yes” and the “efficacy against Streptococcus agalactiae” value (Streptococcus agalactiae) was “yes”. The “efficacy against Moraxella catarrhalis” value (Moraxella catarrhalis) was “yes”, the “efficacy against Proteus mirabilis” value (Proteus mirabilis) was “yes” and the “efficacy against Corynebacterium urealyticum” value [7] was “no”. For the same compound, the “efficacy against Shigella sonnei” value (Shigella sonnei) was “yes”, the “efficacy against Citrobacter diversus” value (Citrobacter diversus) was “yes” and the “efficacy against Chlamydia psittaci” value (Chlamydia psittaci) was “no”. For the same compound, the “efficacy against Escherichia coli” value (Escherichia coli) was “yes”, the “efficacy against Peptostreptococcus” value (Peptostreptococcus) was “yes” and the “efficacy against Mycoplasma pneumoniae” value (Mycoplasma pneumoniae) was “no”. The “efficacy against Enterobacter sakazakii” value (Enterobacter sakazakii) was “yes”, the “efficacy against Citrobacter freundii” value (Citrobacter freundii) was “yes” and the “efficacy against Enterobacter aerogenes” value (Enterobacter aerogenes) was “yes”. For the same compound, the “efficacy against Acinetobacter calcoaceticus” value [8] was “no”, the “efficacy against Streptococcus pyogenes” value (Streptococcus pyogenes) was “yes” and the “efficacy against Klebsiella pneumoniae” value (Klebsiella pneumoniae) was “yes”. The “efficacy against Klebsiella oxytoca” value (Klebsiella oxytoca) was “yes”, the “efficacy against Enterobacter cloacae” value (Enterobacter cloacae) was “yes” and the “efficacy against Enterococcus faecalis” value (Enterococcus faecalis) was “no”.
